Assay results from PubChem BioAssay (NCI).
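Assay format: 96-well plates, 48-hour exposure. The concentration for full growth arrest is given as TGI.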

Experiments:
Experiment in all cases: inhibition of tumour cell growth, NCI panel, 48 h
[1] = test system: SK-MEL-2 melanoma
[2] = test system: MCF7 breast
[3] = test system: OVCAR-4 ovarian
[4] = test system: HCT-15 colon
[5] = test system: SK-MEL-5 melanoma
[6] = test system: UO-31 renal
[7] = test system: SNB-19 CNS
[8] = test system: SK-MEL-28 melanoma
[9] = test system: SR leukemia
[10] = test system: UACC-257 melanoma
[11] = test system: A498 renal
[12] = test system: HCC-2998 colon
[13] = test system: DU-145 prostate
[14] = test system: ACHN renal
[15] = test system: T-47D breast
[16] = test system: BT-549 breast
[17] = test system: MALME-3M melanoma
[18] = test system: TK-10 renal
[19] = test system: IGROV1 ovarian
[20] = test system: OVCAR-3 ovarian
[21] = test system: SN12C renal
[22] = test system: NCI/ADR-RES ovarian
[23] = test system: M14 melanoma
[24] = test system: 786-0 renal
[25] = test system: HOP-92 NSCLC
[26] = test system: RXF 393 renal
[27] = test system: SF-295 CNS
[28] = test system: SF-539 CNS
[29] = test system: PC-3 prostate
[30] = test system: LOX IMVI melanoma
[31] = test system: UACC-62 melanoma
[32] = test system: COLO 205 colon
[33] = test system: A549 NSCLC
[34] = test system: CCRF-CEM leukemia
[35] = test system: OVCAR-8 ovarian
[36] = test system: MDA-MB-435
[37] = test system: K-562 leukemia
[38] = test system: SF-268 CNS
[39] = test system: EKVX NSCLC
[40] = test system: MOLT-4 leukemia
[41] = test system: SW-620 colon
[42] = test system: HCT-116 colon
[43] = test system: RPMI-8226 leukemia
[44] = test system: HT29 colon
[45] = test system: OVCAR-5 ovarian
[46] = test system: MDA-N
[47] = test system: HL-60(TB) leukemia
[48] = test system: CAKI-1 renal
[49] = test system: HS 578T breast
[50] = test system: KM12 colon
[51] = test system: NCI-H522 lung
[52] = test system: HOP-62 NSCLC
[53] = test system: NCI-H23 lung
[54] = test system: NCI-H460 lung
[55] = test system: SNB-75 CNS
[56] = test system: U251 CNS
[57] = test system: MDA-MB-231 breast
[58] = test system: NCI-H226 lung
[59] = test system: SK-OV-3 ovarian

Measured: TGI

OC1[C@H](O)CN(OCc2ccccc2)C[C@@H]1O (some centres undefined)
> 100 µM: [1] | [2] | [3] | [4] | [5] | [6] | [7] | [8] | [9] | [10] | [11] | [12] | [13] | [14] | [15] | [16] | [17] | [18] | [19] | [20] | [21] | [22] | [23] | [24] | [25] | [26] | [27] | [28] | [29] | [30] | [31] | [32] | [33] | [34] | [35] | [36] | [37] | [38] | [39] | [40] | [41] | [42] | [43] | [44] | [45] | [46] | [47] | [48] | [49] | [50] | [51] | [52] | [53] | [54] | [55] | [56] | [57] | [58]

CC(C)(C)NCC(O)c1ccc(O)c(CO)n1 (centres undefined)
> 100 µM: [1] | [2] | [3] | [4] | [5] | [6] | [7] | [8] | [9] | [10] | [11] | [12] | [13] | [14] | [15] | [16] | [18] | [19] | [20] | [21] | [22] | [23] | [24] | [25] | [26] | [27] | [59] | [28] | [29] | [30] | [31] | [32] | [33] | [35] | [36] | [38] | [39] | [40] | [41] | [42] | [43] | [44] | [45] | [46] | [47] | [48] | [49] | [50] | [51] | [52] | [53] | [54] | [55] | [56] | [57] | [58]
